Assay results reported in patent US20160022875A1, “BONE SUBSTITUTES GRAFTED BY MIMETIC PEPTIDES OF HUMAN BMP 2 PROTEIN” (TEKNIMED, priority 2013, published 2016).

Tested on: Runx2 gene
Experiment: Runx2 expression by RT-PCR as a function of density of peptide P1 grafted on a PET model support
Assay type: cell-based
Conditions: P1 grafted on PET at 0.4, 1.2 and 4.3 pmol/mm^2
Procedure: The peptide P1 was covalently grafted onto a model support, at three different densities. The support is made of polyethylene terephthalate (PET). The densities are 0.4 pmol/mm^2, 1.2 pmol/mm^2 and 4.3 pmol/mm^2. The expression level of the Runx2 factor by RT-PCR as a function of the density of the peptide P1 grafted at the surface of a model support was measured for these three densities (FIG. 13). The best expression level of the Runx2 gene is obtained for 1.2 pmol/mm^2 of peptide density, which corresponds to a maximum cell differentiation activity for the model support.
The activity obtained is also stable over time (after 1 week of culture): at 96 h of culture, a continuous increase in the expression of the Runx2 factor (approximately 42%) is observed.

Question: How did the “peptide density giving the best expression level of the Runx2 gene” value turn out when CKIPKASSVPTELSAISMLYL [P1] was run?
Answer: Its value is 1.2 pmol/mm^2.
